The values that follow come from patent US20090047246A1, “NOVEL INHIBITORS OF HEPATITIS C VIRUS REPLICATION” (InterMune, Inc., priority 2007, published 2009).

Structures are written as SMILES. pIC50: −log10 of the molar value.

As usually defined, the pIC50 is the negative decadic logarithm of the IC50, by convention in mol/L.

The target in one assay is T1, HCV NS3 helicase (Hepatitis C virus genotype 1b, UniProt P26663).
T1 construct: full-length NS3 (1-631), purified at Array BioPharma
T1 sequence (P26663 1027-1657): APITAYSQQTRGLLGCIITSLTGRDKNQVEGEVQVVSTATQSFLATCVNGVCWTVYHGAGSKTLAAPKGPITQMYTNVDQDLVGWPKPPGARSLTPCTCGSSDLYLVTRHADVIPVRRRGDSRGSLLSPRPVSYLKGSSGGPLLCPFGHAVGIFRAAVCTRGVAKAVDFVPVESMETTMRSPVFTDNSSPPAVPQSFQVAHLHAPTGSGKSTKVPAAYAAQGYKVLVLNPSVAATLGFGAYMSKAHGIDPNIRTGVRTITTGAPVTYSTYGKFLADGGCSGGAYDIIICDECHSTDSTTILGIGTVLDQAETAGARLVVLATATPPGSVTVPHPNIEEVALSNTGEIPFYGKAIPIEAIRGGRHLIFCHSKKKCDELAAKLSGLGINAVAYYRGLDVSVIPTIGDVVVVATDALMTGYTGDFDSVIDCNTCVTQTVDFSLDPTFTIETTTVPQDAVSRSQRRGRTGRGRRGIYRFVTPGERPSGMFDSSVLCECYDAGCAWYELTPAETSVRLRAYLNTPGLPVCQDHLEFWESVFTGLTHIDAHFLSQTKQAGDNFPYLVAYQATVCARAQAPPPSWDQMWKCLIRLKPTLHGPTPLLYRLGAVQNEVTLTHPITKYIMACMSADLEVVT
Put plainly: HCV Helicase Prompt FRET Assay (Example A). The format is biochemical. The settings on record: HCV NS3 helicase; tables do not say whether Example A or Example B assay; read-out: IC50 Activity. The essentials:
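Initial unwinding rates, monitored as FAM fluorescence gain (ex 485, em 535) over ~30 min at room temperature, gave IC50 via 4- or 5-parameter logistic fits. Reactions: 50 nM quenched duplex, 250 nM capture strand, 300 μM ATP, 5–6 nM NS3 1-631 after 5 min compound preincubation, MOPS pH 7.0 buffer, 2% DMSO.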
For the molecule `CCOC(=O)C(O)c1cn(-c2ccc([N+](=O)[O-])cc2C)c2ccc(Br)cc12` (centres unmarked) [Example 394], the pIC50 was < 4.30.

Regarding `O=C(Cc1cn(Cc2cccc(OCc3ccccc3)c2)c2ccc(OCc3ccccc3)cc12)NCC1CC1` [Example 190], the pIC50 was 4.30 to 5.00.

Take `C#Cc1cn(-c2ccc([N+](=O)[O-])cc2C)c2ncc(Br)cc12` [Example 321]: the negative logarithm of the IC50 (pIC50) was < 4.30.

With `Cn1c(Cc2ccc(-c3ccccc3)cc2)c(CC(=O)O)c2ccccc21` [Example 276], the pIC50 is 4.30 to 5.00.

Consider `O=C(O)Cc1c(-c2ccccc2)n(Cc2csc3ccc(Cl)cc23)c2ccccc12` [Example 414], for which the pIC50 is > 5.00.

For `O=C(O)Cc1c(Cc2ccc(-c3ccccc3)cc2)sc2ccccc12` [Example 306], the pIC50 was > 5.00.

Turning to `CCOc1ccc2c(CC(=O)O)cn(Cc3csc4ccc(Cl)cc34)c2c1` [Example 349], the pIC50 was 4.30 to 5.00.

`Nc1cc(-c2ccc3c(CC(=O)O)cn(Cc4csc5ccc(Cl)cc45)c3c2)cc([N+](=O)[O-])c1` [Example 365]: the pIC50 was > 5.00.

Consider `CSc1ccccc1-c1ccc(C(=O)c2[nH]c3ccccc3c2CC(=O)O)cc1` [Example 271], for which the pIC50 was 4.30 to 5.00.

As for `O=C(O)Cc1cn(Cc2csc3ccc(Cl)cc23)c2cc(OCc3ccccc3)ccc12` [Example 340], the pIC50 was > 5.00.

Regarding `Cc1cc([N+](=O)[O-])ccc1-n1cc(CC(=O)O)c2ccc(OCc3ccccc3)cc21` [Example 343], the pIC50 is 4.30 to 5.00.

Turning to `COc1ccc(N(C)c2cccc(Cn3cc(CC(=O)O)c4ccccc43)c2)cc1OC` [Example 544], the negative logarithm of the IC50 (pIC50) was > 5.00.

In the case of `Cc1ccc2sc(-n3cc(CC(=O)O)c4ccccc43)cc2c1` [Example 146], the pIC50 is > 5.00.

For `O=C(O)Cc1c(C(=O)c2ccc(-c3ccccc3Cl)cc2)[nH]c2ccccc12` [Example 254], the pIC50 was > 5.00.

With `O=C(O)Cc1cn(Cc2ccc(Oc3cc(Cl)ccc3Cl)cc2)c2ccccc12` [Example 590], the pIC50 is > 5.00.

Consider `O=C(O)Cc1cn(Cc2cccc(Oc3cc(F)cc(F)c3)c2)c2ccccc12` [Example 485], for which the pIC50 is 4.30 to 5.00.

For `Cc1cc([N+](=O)[O-])ccc1-n1cc(C(=O)O)c2cc(Br)ccc21` [Example 382], the pIC50 is < 4.30.

Turning to `COc1ccc(Oc2cccc(Cn3cc(CC(=O)O)c4ccccc43)c2)cc1` [Example 480], the pIC50 is > 5.00.

As to `O=C(O)Cc1cn(Cc2cccc(Oc3ccc(F)cc3)c2)c2ccc(OCc3ccccc3)cc12` [Example 120], the pIC50 was > 5.00.

On to `COc1cc2c(cc1OCc1ccccc1)c(CC(=O)O)cn2-c1ccc([N+](=O)[O-])cc1C` [Example 342], for which the pIC50 is 4.30 to 5.00.

As to `Cc1cc([N+](=O)[O-])ccc1C(C(=O)O)C1CN(c2ccc([N+](=O)[O-])cc2C)c2ccc(Br)cc21` (centres unmarked) [Example 406], the pIC50 was 4.30 to 5.00.

`O=C(O)Cc1c(Cc2ccc(-c3ccc(Cl)cc3Cl)cc2)[nH]c2ccccc12` [Example 289]: the pIC50 is > 5.00.

Take `O=C(O)Cc1cn(Cc2cccc(Oc3ccccc3Cl)c2)c2ccccc12` [Example 475]: the pIC50 was > 5.00.

In the case of `CCc1cc2cc(-n3cc(CC(=O)O)c4ccccc43)ccc2s1` [Example 149], the pIC50 is > 5.00.

Take `O=C(O)Cc1cn(CC(=O)O)c2cc(-c3ccccc3)ccc12` [Example 354]: the pIC50 is < 4.30.

As to `CC(C)c1ccc(Cn2c(C(=O)NCc3nc4ccccc4[nH]3)c(CC(=O)O)c3cc(Br)ccc32)cc1` [Example 448], the pIC50 is > 5.00.

On to `CCN(CC)C(=O)c1c(CC(=O)O)c2cc(Br)ccc2n1Cc1ccc(C(C)C)cc1` [Example 432], for which the negative logarithm of the IC50 (pIC50) was 4.30 to 5.00.

For `O=C(O)C(Cc1ccccc1)c1c(-c2ccccc2)n(Cc2csc3ccc(Cl)cc23)c2ccccc12` (centres unmarked) [Example 415], the pIC50 was > 5.00.

Consider `COc1cccc(-c2cccc(Cc3[nH]c4ccccc4c3CC(=O)O)c2)c1` [Example 298], for which the pIC50 was > 5.00.

With `COC(=O)/C=C/c1cn(-c2ccc([N+](=O)[O-])cc2C)c2ncc(OCc3ccccc3)cc12` [Example 328], the pIC50 was < 4.30.

On to `Cc1cc([N+](=O)[O-])ccc1-n1cc(C(=O)C(=O)O)c2cc(Br)ccc21` [Example 381], for which the pIC50 was 4.30 to 5.00.

Take `O=C(O)Cc1cn(Cc2csc3ccc(Cl)cc23)c2cc(-c3cccnc3)ccc12` [Example 743]: the pIC50 is 4.30 to 5.00.

`Cc1cc([N+](=O)[O-])ccc1-n1cc(CCC(=O)O)c2cc(Br)ccc21` [Example 386]: the pIC50 is 4.30 to 5.00.

For the molecule `O=C(O)Cc1c(C(=O)C(Cc2ccccc2)c2ccc(-c3ccccc3)cc2)[nH]c2ccccc12` (centres unmarked) [Example 251], the pIC50 is > 5.00.

In the case of `Cc1cc([N+](=O)[O-])ccc1-n1cc(CC(=O)O)c2ccccc21` [Example 377], the pIC50 is < 4.30.

Regarding `O=C(O)Cc1cn(Cc2ccc(Cl)s2)c2ccc(Br)cc12` [Example 137], the pIC50 was 4.30 to 5.00.

Regarding `O=C(O)Cc1cn(Cc2csc3ccc(Cl)cc23)c2cc(-c3ccccc3)ccc12` [Example 353], the pIC50 is > 5.00.

In the case of `CN(c1cccc(Cn2cc(CC(=O)O)c3ccccc32)c1)c1ccc(Cl)cc1Cl` [Example 538], the pIC50 is > 5.00.

In the case of `O=C(O)Cc1c(C(=O)c2cccc(-c3cccc(Cl)c3)c2)[nH]c2ccccc12` [Example 232], the pIC50 is 4.30 to 5.00.

As to `O=C(O)Cc1c(C(=O)c2cccc(-c3ccc(Cl)cc3Cl)c2)[nH]c2ccccc12` [Example 239], the negative logarithm of the IC50 (pIC50) is > 5.00.

Consider `O=C(O)Cc1cn(Cc2cccc(-c3cccc(Cl)c3)c2)c2ccc(OCc3ccccc3)cc12` [Example 129], for which the pIC50 was > 5.00.

Turning to `Cc1cc([N+](=O)[O-])ccc1CC1CN(c2ccc([N+](=O)[O-])cc2C)c2ccc(Br)cc21` (centres unmarked) [Example 405], the negative-log IC50 (pIC50) was 4.30 to 5.00.

As to `Cc1cc([N+](=O)[O-])ccc1-n1cc(C=O)c2cc(OCc3ccccc3)ncc21` [Example 327], the negative logarithm of the IC50 (pIC50) is < 4.30.

As for `O=C(O)Cc1c(Cc2ccc(-c3ccccc3)cc2)n(Cc2ccccc2)c2ccccc12` [Example 277], the pIC50 is 4.30 to 5.00.

Turning to `O=C(O)Cc1cn(Cc2cccc(OCc3ccccc3)c2)c2ccccc12` [Example 116], the pIC50 was 4.30 to 5.00.

For `CC(C)c1ccc(Cn2c(C(=O)NCc3ccc(-c4ccccc4)cc3)c(CC(=O)O)c3cc(Br)ccc32)cc1` [Example 441], the pIC50 is 4.30 to 5.00.

Consider `Cc1cc(-c2cccc(Cn3cc(CC(=O)O)c4cc(OCc5ccccc5)ccc43)c2)ccc1F` [Example 118], for which the pIC50 is > 5.00.

Staying with this assay, now noted: Table 21, compounds made using Scheme 28; read-out: IC50 Activity.
In the case of `CN(c1ccc(Cn2cc(CC(=O)O)c3ccccc32)cc1)c1cccc(Cl)c1` [Example 560], the pIC50 is > 5.00.

The assay is the same for the next values; noted with them: Table 23, compounds made using Scheme 30; read-out: IC50 Activity.
As for `O=C(O)Cc1cn(Cc2cccc(Oc3ccc(F)cc3F)c2)c2ccccc12` [Example 593], the pIC50 was > 5.00.

The assay is the same for the next values; noted with them: Table 31, compounds made using Schemes 38-45; read-out: IC50 Activity.
`Cc1ccccc1-c1ccc2c(CC(=O)O)cn(Cc3csc4ccc(Cl)cc34)c2c1` [Example 626]: the pIC50 was > 5.00.

The same assay, now with this note: Table 34, compounds made using Schemes 51-52; read-out: IC50 Activity.
In the case of `Nc1cc(N)cc(-c2ccc3c(CC(=O)O)cn(Cc4csc5ccccc45)c3c2)c1` [Example 679], the pIC50 was > 5.00.

With `CC(C)c1ccc(Cn2cc(C(Cc3ccccc3)C(=O)NS(=O)(=O)C3CC3)c3cc(Br)ccc32)cc1` (centres unmarked) [Example 686], the pIC50 is > 5.00.

Take `CC(=O)OC1CCCN(c2ccc3ccn(Cc4csc5ccc(Cl)cc45)c3c2)C1` (centres unmarked) [Example 695]: the pIC50 was 4.30 to 5.00.

Regarding `Nc1cc(N)cc(-c2ccc3c(CC(=O)NS(=O)(=O)C4CC4)cn(Cc4csc5ccc(Cl)cc45)c3c2)c1` [Example 688], the pIC50 is > 5.00.

The same assay, now with this note: Table 36, compounds made using Scheme 54; read-out: IC50 Activity.
In the case of `O=C(O)Cc1cn(Cc2csc3c(Cl)cccc23)c2cc(Br)ccc12` [Example 782], the pIC50 is < 4.30.

As for `Nc1cc(N)cc(-c2ccc3c(CC(=O)O)cn(Cc4c(-c5ccccc5)sc5ccccc45)c3c2)c1` [Example 713], the pIC50 was > 5.00.

For the molecule `O=C(O)Cc1cn(Cc2csc3cccc(Cl)c23)c2cc(Br)ccc12` [Example 783], the pIC50 was 4.30 to 5.00.

As for `O=C(O)Cc1cn(Cc2csc3c(Cl)c(Cl)ccc23)c2cc(Br)ccc12` [Example 780], the pIC50 was < 4.30.

For `Nc1cc(N)cc(-c2ccc3c(CC(=O)O)cn(Cc4csc5c(Cl)cccc45)c3c2)c1` [Example 725], the negative-log IC50 (pIC50) was 4.30 to 5.00.

As to `CCOC(=O)Cc1cn(Cc2csc3ccc(OC(F)(F)F)cc23)c2cc(-c3cc([N+](=O)[O-])cc([N+](=O)[O-])c3)ccc12` [Example 717], the pIC50 is 4.30 to 5.00.

The assay is the same for the next values; noted with them: Table 37, compounds made using Scheme 55; read-out: IC50 Activity.
As to `N#Cc1ccc(-c2ccc3c(CC(=O)O)cn(Cc4csc5ccc(Cl)cc45)c3c2)cc1` [Example 757], the negative-log IC50 (pIC50) is 4.30 to 5.00.

For `CN(C)C(=O)c1cccc(-c2ccc3c(CC(=O)O)cn(Cc4csc5ccc(Cl)cc45)c3c2)c1` [Example 761], the pIC50 was 4.30 to 5.00.

In the case of `O=C(O)Cc1cn(Cc2csc3ccc(Cl)cc23)c2cc(-c3cccc(F)c3)ccc12` [Example 759], the pIC50 was < 4.30.

`O=C(O)Cc1cn(Cc2csc3ccc(Cl)cc23)c2cc(-c3ccncc3)ccc12` [Example 764]: the pIC50 was 4.30 to 5.00.

With `NC(=O)c1ccccc1-c1ccc2c(CC(=O)O)cn(Cc3csc4ccc(Cl)cc34)c2c1` [Example 762], the pIC50 was < 4.30.

With `COc1ccccc1-c1ccc2c(CC(=O)O)cn(Cc3csc4ccc(Cl)cc34)c2c1` [Example 747], the pIC50 was < 4.30.

The same assay, now with this note: Table 38, compounds made using Scheme 56, Scheme 57 and Scheme 61; read-out: IC50 Activity.
Consider `CCNc1cc(Cl)cc2c(Cn3cc(CC(=O)O)c4ccc(-c5cc(N)cc(N)c5)cc43)csc12` [Example 731], for which the pIC50 is > 5.00.

For the molecule `CCOC(=O)Cc1cn(Cc2csc3c(N(C=O)CC)cc(Cl)cc23)c2cc(Br)ccc12` [Example 771], the pIC50 was < 4.30.
